Measurements reported in patent US8088731B2, “Use of GLP-1 compound for treatment of critically ill patients” (Novo Nordisk A/S, priority 2002, dated 2012).

Assays:
[1] = tested on: subjects with type 2 diabetes; experiment: Graded glucose infusion crossover study of beta cell sensitivity to glucose after a single dose; assay type: in vivo, human; settings: single dose 7.5 μg/kg
Method: Using a graded glucose infusion protocol with plasma glucose levels matched over the range of 5 to 12 mmol/L beta cell sensitivity was assessed. Insulin secretion rates (ISR) were estimated by deconvolution of circulating C-peptide concentrations. Findings were compared to responses of 10 healthy, nondiabetic volunteers to the same glucose infusion protocol.

[2] = tested on: subjects with type 2 diabetes; experiment: 12 week randomised, double-blind, dose-response, placebo controlled and open label glimepiride study of glucose lowering effect; assay type: in vivo, human; settings: 12 weeks
Method: The dose of glimepiride was adjusted during the first 4 weeks based on glycaemic control with a treatment target of fasting serum glucose <7 mM, with a dose not exceeding 4 mg/day. Results

hypoglycemic events ([1]; type 2 diabetes subjects) | subjects that reported any hypoglycaemic episode ([2]; two highest dose groups (0.60 and 0.75 mg)) | subjects that reported any hypoglycaemic episode ([2]; glimepiride group) | SMILES | C-peptide levels compared to placebo ([1]; type 2 diabetes subjects) | insulin levels compared to placebo ([1]; type 2 diabetes subjects) | slope of ISR vs. plasma glucose ([1]; type 2 diabetes subjects, graded glucose infusion, p<0.014 vs placebo) | insulin secretion at low glucose levels ([1]; versus non-diabetic controls) | mean serum fasting glucose decrease compared with placebo ([2]; 0.60 mg once daily s.c., p<0.0001) | mean decrease compared to placebo in HbA1c ([2]; 0.60 mg once daily s.c., p=0.0002) | mean decrease compared to placebo in HbA1c ([2]; 0.75 mg once daily s.c., p<0.0001) | mean serum fasting glucose decrease compared with placebo ([2]; 0.75 mg once daily s.c., p=0.0003) | reduction compared to placebo on FSG ([2]; glimepiride p.o. once daily, open-label, titrated, not exceeding 4 mg/day) | reduction compared to placebo on HbA1c ([2]; glimepiride p.o. once daily, open-label, titrated, not exceeding 4 mg/day, p=0.0001)
No hypoglycemic events occurred | 7% | – | CCCCCCCCCCCCCCCC(=O)N[C@@H](CCC(=O)NCCCC[C@H](NC(=O)[C@H](C)NC(=O)[C@H](C)NC(=O)[C@H](CCC(N)=O)NC(=O)CNC(=O)[C@H](CCC(=O)O)NC(=O)[C@H](CC(C)C)NC(=O)[C@H](Cc1ccc(O)cc1)NC(=O)[C@H](CO)NC(=O)[C@H](CO)NC(=O)[C@@H](NC(=O)[C@H](CC(=O)O)NC(=O)[C@H](CO)NC(=O)[C@@H](NC(=O)[C@H](Cc1ccccc1)NC(=O)[C@@H](NC(=O)CNC(=O)[C@H](CCC(=O)O)NC(=O)[C@H](C)NC(=O)[C@@H](N)Cc1cnc[nH]1)[C@@H](C)O)[C@@H](C)O)C(C)C)C(=O)N[C@@H](CCC(=O)O)C(=O)N[C@@H](Cc1ccccc1)C(=O)N[C@H](C(=O)N[C@@H](C)C(=O)N[C@@H](Cc1c[nH]c2ccccc12)C(=O)N[C@@H](CC(C)C)C(=O)N[C@H](C(=O)N[C@@H](CCCNC(=N)N)C(=O)NCC(=O)N[C@@H](CCCNC(=N)N)C(=O)NCC(=O)O)C(C)C)[C@@H](C)CC)C(=O)O [NN2211, Arg^34, Lys^26(N^ε-(γ-Glu(N^α-hexadecanoyl)))-GLP-1(7-37)] | increased | increased | 1.26±0.36 pmol*L/(min*mmol*kg) | comparable to the non-diabetic controls | 2.14 mmol/L | 0.70 percentage points | 0.75 percentage points | 1.82 mmol/L | – | –
– | – | 31% | CCC1=C(C)CN(C(=O)NCCc2ccc(S(=O)(=O)NC(=O)N[C@H]3CC[C@H](C)CC3)cc2)C1=O [glimepiride, reference compound] | – | – | – | – | – | – | – | – | -2.6 mM | 0.74%
